Legend:
Jurkat cells [1] = assay: α-gal A activity (4-MUG substrate) in lysates and supernatants of transduced Jurkat cells after MPA enrichment; assay type: cell-based; conditions: Jurkat cells transduced with dual promoter vector; 0.5 μM MPA, 16 days, then recovery; FIGS. 4E and 4F
Procedure: (§1) In this Example, Jurkat cells (immortalized T cells) are used. […] 3 cell lines were generated by transducing Jurkat cells with the vectors described or with protamine sulphate only as a mock. VCN/genome was adjusted by dilution of the transduced cells with mock transduced cells. Each of these were seeded in 4 replicates and either treated with DMSO (vehicle) or 0.5 μM MPA. Fresh media with drug or vehicle was added after centrifuging the cells and discarding old media every two days. Samples were taken for cell counts. After 16 days of treatment, cells were reseeded for recovery in fresh media for a total of four days, after which they were counted and reseeded again for two days for α-gal A activity assay or one day for gDNA.

Jurkat cells [2] = assay: Glucocerebrosidase activity in supernatant of transduced Jurkat cells after MPA enrichment (fluorometric assay); assay type: cell-based; conditions: cells transduced with GBA+(IY) virus and treated with MPA (0.5 μM, 16 days); FIG. 13
Procedure: Jurkat cells were transduced with lentivirus at an MOI of ˜0.1-0.2. Cells were cultured for at least 2 weeks prior to measuring baseline vector copy number. Cell lines for each of LV/GBA+eGFP and LV/GBA+(IY), or non-transduced cells were produced in this way. To measure enrichment, testing was carried out as described in Example 2. Briefly, cells at known densities were seeded in quadruplicate for each cell line, and maintained in culture for 16 days with either vehicle (DMSO) or 0.5 μM MPA, with media being replaced every two days. After treatment, cells were diluted and recovered for 4-8 days. gDNA was extracted from cells sampled from each well, and vector copy number analyses were carried out using qPCR. Cells from each well were also seeded at known and equal densities for 72 hours, after which supernatant was collected, cleared of cells and debris, and glucocerebrosidase activity measured using a fluorometric assay. Briefly, supernatants were incubated for 1 hour with substrate solution containing 4-methylumbelliferyl-beta-D-glucopyranoside (15 mM). The reaction was quenched with 0.1M glycine at pH 10 and fluorescence of the reaction product quantified against a calibration curve of the product.

Jurkat cells [3] = assay: In vitro enrichment of transduced Jurkat cells with MPA: vector copy number per genome by qPCR; assay type: cell-based; conditions: Jurkat cells transduced with dual promoter vector; 0.5 μM MPA vs DMSO, 16 days; FIG. 4C
Procedure: as §1
VCN was determined by comparison to a standard curve using a qPCR based method and normalized to the number of beta actin (ACTB) copies to determine a per genome value. Patterned bars in the chart refer to samples treated with DMSO and solid bars refer to those treated with MPA.

Fabry mice = assay: In vivo enrichment in Fabry mice engrafted with transduced HSPCs: observation of toxicities; conditions: 0.15% MMF medicated chow ad libitum, 2 months of treatment
Procedure: Briefly, male and female Fabry mice aged 2-5 months of age are treated with 5-fluorouracil (5-FU) to deplete bone marrow cells and enrich for HSPCs. Four days after treatment these mice are euthanized, and bone marrow is isolated from femurs and tibia, and processed for transduction. Cells are cultured in stem cell media and transduced using lentivirus described above for 12 hours at a multiplicity of infection (MOI) of 10. Transduced cells are then harvested and prepared for administration to recipient mice. Recipients are male Fabry mice aged approximately 2 months. These are irradiated prior to engrafting transduced cells to deplete their own hematopoietic system. Some cells are retained in culture for an extra 48 hours to assay transduction. Mice are kept on prophylactic antibiotics as support during immune recovery. Engraftment of transduced cells is assessed by measuring VCN/genome in circulation using a qPCR-based assay and comparing to a standard curve, and by measuring plasma α-gal A activity. MMF medicated chow may be started after stable engraftment has been achieved, typically after 4 months. […] A baseline bleed was done to confirm engraftment and the mice were given 0.15% MMF capsule (TEVA generics, Israel) medicated chow ad libitum, and bled every 15 days to observe changes in plasma α-gal A activity, which is a measure of enrichment. […]

Compound	α-gal A activity in cell lysates and culture supernatants (Jurkat cells [1])	enzyme activity in cell culture supernatant (Jurkat cells [2])	increase in the vector copy number of the total population per genome (Jurkat cells [3]) [fold]	drug-related toxicities (Fabry mice)
COc1c(C)c2c(c(O)c1C/C=C(\C)CCC(=O)O)C(=O)OC2 [MPA, mycophenolic acid]	corresponding increase in α-gal A activity	increased enzyme activity	~8	
COc1c(C)c2c(c(O)c1C/C=C(\C)CCC(=O)OCCN1CCOCC1)C(=O)OC2 [MMF, mycophenolate mofetil]				No drug-related toxicities were observed
